One assay has as its system HIV. As to the kind of experiment: HIV infectivity, luciferase reporter assay on TZM/BI reporter cell line with azide-labeled virus. It is filed as cell-based, human immunodeficiency virus (HIVNL4-3). The settings on record: virus produced in CEMx174 cells spiked with the compound; incubated 12 hours on TZM/BI; single cycle replication system; two luciferase reagents (FIGS. 3 and 4). The method, then:
CEMx174 cells were transfected with HIVNL4-3 in a T-150 flask and the virus production was monitored by reverse transcriptase activity until peak virus production occurred (usually 7 to 9 days post transfection). Prior to transfection, the CEMx174 cells were spiked with the following azide-modified biomolecules: 15-azidopentadecanoic acid (50-100 μM), 12-azidododecanoic acid (50-100 μM), tetraacetylated N-azidoacetylgalactosamine (20-40 μM), and tetraacetylated N-azidoacetyl-D-mannosamine (20-40 μM).
Labeled virus was also obtained from the transfected cells. More specifically, virus-containing supernatants were collected and virus was purified through 20% sucrose as previously described (Graham, D. R. et al., Proteomics 2008, 8:4919-30). The purified virus was then mixed with the CLICK-IT® detection reagent, tetramethylrhodamine (TAMRA) alkyne and the CLICK-IT® Protein Reaction Buffer Kit (Invitrogen, Carlsbad, Calif.). Virus samples were run on a one-dimensional gel to reveal azide-labeled viral proteins (FIG. 2). […]
To examine the effect of the azide-modified biomolecules on the innate biology of the virus, the azide-labeled virus from the transfected cells was isolated and tested in cell infection studies. […] Viral infectivity was determined by measuring cellular luciferase activities with two different luciferase reagents.
A general note: A reporter such as luciferase makes a cellular process visible.

For assay [1], the system named is Nuclear-GFP BacMam 2.0 virus (baculovirus). Description: BacMam baculovirus infectivity in U2-OS cells (nuclear-GFP expression). Format: cell-based. The settings on record: virus labeled in Sf9 cells with 50 uM analog; 20 or 50 uL virus, overnight at 37C; FIG. 5. The text has this: Inhibition of insect cell baculovirus infectivity with azido fatty acid analogs: The BacMam system uses a modified insect cell virus (baculovirus) as a vehicle to efficiently deliver and express genes in mammalian cells, A Nuclear-GFP BacMam 2.0 expression system (Invitrogen, C10602) was used as a model to determine if PTM analog labeling of the virus would affect mammalian cell infectivity. Viruses were labeled with various PTM analogs and used to infect mammalian cells. Infectivity was determined by the expression of nuclear-GFP, is viral entry into the cell is required for expression of GFP protein. […]
Characterization of BacMam virus production: To verify, quantitate, and normalize the amount of enriched viruses obtained from insect cell supernatants, samples of each virus were lysed in SDS sample preparation buffer (SPB), sonicated with a probe tip sonicator, and heated at 90C to completely dissolve the viral proteins. Viral protein concentrations of the lysates were then determined. […]
Mammalian cell infection protocol: To determine if the PTM analog-labeled viruses retain the ability to infect mammalian cells, 50,000 U2-OS cells (human osteosarcoma cell line) were plated onto a 6 well-chamber glass bottom plate. […] The following day cells were imaged on AMG EVOS fluorescence microscope at 10× or 20× magnification using both white light and GFP filters (FIG. 5). […]

The results in this text go back to patent US10632133B2, “Anti-viral azide containing compounds” (Life Technologies Corporation, priority 2010, dated 2020).

With `[N-]=[N+]=NCCCCCCCCCCCC(=O)O` [12-azidododecanoic acid], in the assay on HIV, the “impact on the infectivity of the virus (cellular luciferase activities)” value is recorded as “profound impact on the infectivity of the virus”. Further, the “nuclear-GFP expression in U2-OS cells treated with labeled BacMam virus” value in assay [1] is “no nuclear-GFP expression”. With `[N-]=[N+]=NCCCCCCCCCCCCCCC(=O)O` [15-azidopentadecanoic acid], in assay [1], the “nuclear-GFP expression in U2-OS cells treated with labeled BacMam virus” value was “no nuclear-GFP expression”.
